According to patent US20250098671A1, “CHITOSAN ENCAPSULATION OF OXYMATRINE AND TEA SAPONIN FOR USE IN PESTICIDAL ACTIVITY” (priority 2023, published 2025):

Columns and labels:
[1] = test system: Black Sigatoka; test: Field trials against black Sigatoka in bananas; format: in vivo, Mycosphaerella fijiensis; details: applied as tank mixes with tea tree oil
Excerpt: Fungicides are combined in mixtures mainly: to widen the spectrum of antifungal activity and to extend its duration; to exploit the synergistic interaction between the compounds, whereby the overall activity can be increased or the amounts used can be reduced without loss of activity; and to delay or reduce the emergence of resistant strains. […] Although in principle, combinations of synthetic antifungal compounds could be used to reduce the chemical load of any particular compound applied to crops, concerns about resistance development at lower doses have militated against their use as advised by the Fungicide Resistance Action Committee (FRAC).

[2] = all the antioxidant assay systems; cited from earlier work
[3] = test system: tomato seedlings; test: Phytotoxicity of geraniol, drenching treatment of potted tomato seedlings; format: in vivo; details: for Phytotoxicity symptom / Extent of phytotoxicity (0-5): Tomato, 1 week after treatment; for Extent of phytotoxicity (0-5): 50 ml drench
Excerpt: Sterilized soil was uniformly mixed, 300 g thereof was then placed in each pot, and tomato seedlings not infected with root-knot nematodes were transplanted thereto.

[4] = test system: root-knot nematodes (Meloidogyne spp.); test: Nematocidal activity assessed in development of embodiments; format: in vivo
Excerpt: Other embodiments may include the use of other monoterpene alcohols in place of geraniol. In some embodiments, a plant extract selected from the group consisting of a oxymatrine, neem extract, an Ostericum koreanum extract, Quillaja saponaria Molina and a clove extract may be added.

[5] = test system: mosquitos and midge (Ae. aegypti, Culex species mosquitoes, Anopheles species mosquitoes); test: Mosquito and midge adult activity; format: in vivo; details: 500 to 8,000 ppm
[6] = cited from earlier work
[7] = test system: mildew, and anthracnose; test: Fungicide activity of Geraniol oil; details: 500 to 4,000 ppm
[8] = test system: plant; test: Plant phytotoxicity noted in development assessments
[9] = test system: black Sigatoka; test: Black Sigatoka activity assessed in development of embodiments; details: in vivo
[10] = test system: root-knot nematodes (Meloidogyne spp.); test: Nematocidal activity on hatched root-knot nematodes in Petri dish; details: 15 nematodes; for Nematocidal efficiency (%): up to 3 days
Experimental: The tomato roots infected with root-knot nematodes were washed with running water and were then cut to a size of about 1 cm, after which 50 g of the cut roots were placed in a 500 ml round-bottom flask containing 200 ml of 0.5% sodium hypochloride (NaOCl), stopped with a rubber stopper, and shaken vigorously for 3 min to sterilize the roots and at the same time burst the egg bag. Thereafter, the solution was passed through a sieve in which 200 mesh was superimposed on 500 mesh, and washed with distilled water, so the eggs of the root-knot nematodes from which the NaOCl solution was removed were recovered.
Next, the eggs of the root-knot nematodes thus recovered were surface-sterilized with 0.5% NaOCl for 10 min, washed thoroughly with sterile distilled water, placed in a phosphate buffer (1%) containing sterilized normal saline, and hatched in an incubator at 25° C.
Thereafter, each mixed solution was diluted to 2000 ppm, 2 to 3 ml thereof was poured into a Petri dish, after which 15 hatched root-knot nematodes were placed in the Petri dish, and nematocidal activity was measured and the results thereof are shown in Table 1 below.
The number of root-knot nematodes used for the experiment on the number of killed root-knot nematodes was 15 at each dilution factor.

[11] = test system: multiple insects; test: Insecticidal activity on multiple insects; format: in vivo; details: 500 to 6,000 ppm
[12] = 2000 ppm dilution, mixed 1:1 with emulsifier PLE9

CON=C(C(=O)OC)c1ccccc1CON=C(C)c1cccc(C(F)(F)F)c1 [trifloxystrobin]
control of Black Sigatoka [1]: effectively controlled Black Sigatoka

O=c1c(O)c(-c2ccccc2)oc2cc(O)cc(O)c12 [Galangin, galangin]
antioxidant activity [2]: comparable activity with that of AEP and EEP

CC(C)=CCC/C(C)=C/CO [Geraniol, 3,7-dimethyl-2,6-octadien-1-ol]
phytotoxicity symptoms in tomato seedlings ([3]; 4000 ppm or more): all tomato seedlings collapsed and withered
Phytotoxicity symptom ([3]; Geraniol 100 ppm): No
Extent of phytotoxicity (0-5) ([3]; Geraniol 100 ppm): 0
Phytotoxicity symptom ([3]; Geraniol 200 ppm): No
Extent of phytotoxicity (0-5) ([3]; Geraniol 200 ppm): 0
Phytotoxicity symptom ([3]; Geraniol 330 ppm): No
Extent of phytotoxicity (0-5) ([3]; Geraniol 330 ppm): 0
Phytotoxicity symptom ([3]; Geraniol 500 ppm): No
Extent of phytotoxicity (0-5) ([3]; Geraniol 500 ppm): 0
Phytotoxicity symptom ([3]; Geraniol 1,000 ppm): No
Extent of phytotoxicity (0-5) ([3]; Geraniol 1,000 ppm): 0
Phytotoxicity symptom ([3]; Geraniol 2,000 ppm): No
Extent of phytotoxicity (0-5) ([3]; Geraniol 2,000 ppm): 0
Phytotoxicity symptom ([3]; Geraniol 3,000 ppm): No
Extent of phytotoxicity (0-5) ([3]; Geraniol 3,000 ppm): 0
Phytotoxicity symptom ([3]; Geraniol 4,000 ppm): Withered
Extent of phytotoxicity (0-5) ([3]; Geraniol 4,000 ppm): 5
Phytotoxicity symptom ([3]; Geraniol 5,000 ppm): Withered
Extent of phytotoxicity (0-5) ([3]; Geraniol 5,000 ppm): 5
Phytotoxicity symptom ([3]; Geraniol 10,000 ppm): Withered
Extent of phytotoxicity (0-5) ([3]; Geraniol 10,000 ppm): 5
Phytotoxicity symptom ([3]; Geraniol 20,000 ppm): Withered
Extent of phytotoxicity (0-5) ([3]; Geraniol 20,000 ppm): 5
phytotoxicity symptoms in tomato seedlings ([3]; concentration range of 100 ppm to 3,000 ppm): no particular phytotoxicity symptoms
nematocidal control ([4]; 500 to 4,000 ppm): superior nematocidal control
nematocidal activity ([4]; utilized alone): superior nematocidal activity
mosquito and midge control [5]: superior mosquito and midge control
solubility in organic solvents ([6]; most common organic solvents): soluble in most common organic solvents
solubility in water ([6]; water): insoluble in water
fungicidal control [7]: superior fungicidal control
plant phytotoxicity ([8]; 500 to 4,000 ppm): without plant phytotoxicity
plant phytotoxicity or water toxicology ([8]; 500 to 8,000 ppm): without plant phytotoxicity or water toxicology
plant phytotoxicity ([8]; 4,500 ppm or more): plant phytotoxicity was shown to occur
control of the black sigatoka fungus [9]: also effective against the fungus
number of killed root-knot nematodes, 1 day [10, 12]: 15ª
number of killed root-knot nematodes, 1 day ([10]; Geraniol 2,000 ppm): 15

pyrethrin
number of killed root-knot nematodes, 1 day [10, 12]: 5
number of killed root-knot nematodes, 2 days [10, 12]: 6
number of killed root-knot nematodes, 3 days [10, 12]: 11
Nematocidal efficiency (%) ([10]; 2000 ppm dilution): 73.3%

O=C1CCC[C@@H]2[C@H]3CCC[N+]4([O-])CCC[C@@H](CN12)[C@@H]34 (stereo partly shown) [Oxymatrine, oxymatrine]
insecticidal control [11]: superior insecticidal control
plant phytotoxicity ([8]; 500 to 6,000 ppm): without plant phytotoxicity
number of killed root-knot nematodes, 1 day [10, 12]: 7
number of killed root-knot nematodes, 2 days [10, 12]: 9
number of killed root-knot nematodes, 3 days [10, 12]: 10

C/C=C(\C)C(=O)O[C@H]1C[C@@H](OC(C)=O)[C@@]2(C(=O)OC)CO[C@H]3[C@@H](O)[C@@](C)([C@]45O[C@@]4(C)[C@H]4C[C@@H]5O[C@@H]5OC=C[C@@]54O)[C@H]4[C@]1(CO[C@]4(O)C(=O)OC)[C@@H]32 [Azadirachtin, azadirachtin]
number of killed root-knot nematodes, 1 day [10, 12]: 7
number of killed root-knot nematodes, 2 days [10, 12]: 8
number of killed root-knot nematodes, 3 days [10, 12]: 10
Nematocidal efficiency (%) ([10]; 2000 ppm dilution): 66.7%

CC1COC(Cn2cncn2)(c2ccc(Oc3ccc(Cl)cc3)cc2Cl)O1 (stereo not shown) [difenoconazole]
control of Black Sigatoka [1]: effectively controlled Black Sigatoka
